Laboratory results reported in EPA's CvTdb concentration-time database.

What was measured:
Rat [1] = experiment: concentration in plasma after dosing; conditions: 20 h; dosed: Pyridine; 25 mg/kg; oral; Male; F344
Rat [2] = experiment: concentration in plasma after dosing; conditions: 2 h; dosed: Pyridine; 10 mg/kg; iv; Male; F344
Rat [3] = experiment: concentration in plasma after dosing; conditions: dosed: Pyridine, 5 mg/kg, oral, Male, F344
Rat [4] = experiment: concentration in plasma after dosing; conditions: dosed: Pyridine, 5 mg/kg, oral, Male, F344; remark: listed apart in the source
Rat [5] = experiment: concentration in plasma after dosing; conditions: 2 h; dosed: Pyridine; 5 mg/kg; oral; Male; F344
Rat [6] = experiment: concentration in plasma after dosing; conditions: 0.25 h; dosed: 2-Hydroxy-4-methoxybenzophenone; 500 mg/kg; oral; Male; F344
Rat [7] = experiment: concentration in plasma after dosing; conditions: 6 h; dosed: 2-Hydroxy-4-methoxybenzophenone; 500 mg/kg; oral; Male; F344
Mouse [8] = experiment: concentration in plasma after dosing; conditions: dosed: 2-Hydroxy-4-methoxybenzophenone, 100 mg/kg, oral, Male, B6C3F1
Rat [9] = experiment: concentration in plasma after dosing; conditions: dosed: 2-Hydroxy-4-methoxybenzophenone, 500 mg/kg, oral, Female, F344
Rat [10] = experiment: concentration in plasma after dosing; conditions: dosed: 2-Hydroxy-4-methoxybenzophenone, 250 mg/kg, oral, Male, F344
Rat [11] = experiment: concentration in plasma after dosing; conditions: dosed: 2-Hydroxy-4-methoxybenzophenone, 100 mg/kg, oral, Male, F344
Mouse [12] = experiment: concentration in plasma after dosing; conditions: 10 min; dosed: 2-Hydroxy-4-methoxybenzophenone; 250 mg/kg; oral; Male; B6C3F1
Rat [13] = experiment: concentration in plasma after dosing; conditions: 6 h; dosed: alpha-Thujone; 25 mg/kg; oral; Male; Harlan Sprague Dawley
Rat [14] = experiment: concentration in brain after dosing; conditions: 3 h; dosed: alpha-Thujone; 25 mg/kg; oral; Female; Harlan Sprague Dawley
Rat [15] = experiment: concentration in plasma after dosing; conditions: 6 h; dosed: alpha-Thujone; 50 mg/kg; oral; Female; Harlan Sprague Dawley
Rat [16] = experiment: concentration in plasma after dosing; conditions: 10 min; dosed: alpha-Thujone; 25 mg/kg; oral; Male; Harlan Sprague Dawley
Rat [17] = experiment: concentration in plasma after dosing; conditions: 3 h; dosed: alpha-Thujone; 25 mg/kg; oral; Female; Harlan Sprague Dawley
Rat [18] = experiment: concentration in plasma after dosing; conditions: 2.5 h; dosed: 76231-76-0; 3.0 mg/kg; iv; Female; F344
Rat [19] = experiment: concentration in plasma after dosing; conditions: 10 min; dosed: alpha-Thujone; 25 mg/kg; oral; Male; Harlan Sprague Dawley; remark: listed apart in the source
Rat [20] = experiment: concentration in plasma after dosing; conditions: 10 min; dosed: alpha-Thujone; 50 mg/kg; oral; Female; Harlan Sprague Dawley
Rat [21] = experiment: concentration in plasma after dosing; conditions: 3 h; dosed: alpha-Thujone; 50 mg/kg; oral; Female; Harlan Sprague Dawley
Rat [22] = experiment: concentration in plasma after dosing; conditions: 12 h; dosed: alpha-Thujone; 50 mg/kg; oral; Female; Harlan Sprague Dawley
Rat [23] = experiment: concentration in brain after dosing; conditions: 6 h; dosed: alpha-Thujone; 25 mg/kg; oral; Male; Harlan Sprague Dawley
Rat [24] = experiment: concentration in brain after dosing; conditions: 2 min; dosed: alpha-Thujone; 25 mg/kg; oral; Male; Harlan Sprague Dawley
Rat [25] = experiment: concentration in plasma after dosing; conditions: 2 min; dosed: alpha-Thujone; 25 mg/kg; oral; Male; Harlan Sprague Dawley
Rat [26] = experiment: concentration in liver after dosing; conditions: 192 h; dosed: Perfluorohexane-1-sulphonic acid – potassium salt; 16 mg/kg; oral; Female; F344
Rat [27] = experiment: concentration in kidney after dosing; conditions: 6 h; dosed: Perfluorohexane-1-sulphonic acid – potassium salt; 16 mg/kg; oral; Female; Harlan Sprague Dawley
Rat [28] = experiment: concentration in kidney after dosing; conditions: 6 h; dosed: Perfluorohexane-1-sulphonic acid – potassium salt; 16 mg/kg; oral; Female; Harlan Sprague Dawley; remark: listed apart in the source
Rat [29] = experiment: concentration in kidney after dosing; conditions: 528 h; dosed: Perfluorohexane-1-sulphonic acid – potassium salt; 16 mg/kg; oral; Female; F344
Rat [30] = experiment: concentration in kidney after dosing; conditions: 24 h; dosed: Perfluorohexane-1-sulphonic acid – potassium salt; 16 mg/kg; oral; Female; Harlan Sprague Dawley
Rat [31] = experiment: concentration in brain after dosing; conditions: 24 h; dosed: Perfluorohexane-1-sulphonic acid – potassium salt; 16 mg/kg; oral; Female; Harlan Sprague Dawley
Rat [32] = experiment: concentration in kidney after dosing; conditions: 192 h; dosed: Perfluorohexane-1-sulphonic acid – potassium salt; 16 mg/kg; oral; Female; F344
Mouse [33] = experiment: concentration in plasma after dosing; conditions: dosed: 2,4-Dichlorophenoxyacetic acid, 1.0 mg/kg, oral, Male, B6C3F1
Rat [34] = experiment: concentration in plasma after dosing; conditions: 2 min; dosed: Methyleugenol; 37 mg/kg; iv; Female; F344
Rat [35] = experiment: concentration in plasma after dosing; conditions: dosed: Methyleugenol, 37 mg/kg, oral, Male, F344/N
Rat [36] = experiment: concentration in plasma after dosing; conditions: 22 h; dosed: Primidone; 130 mg/kg; oral; Female; F344
Rat [37] = experiment: concentration in plasma after dosing; conditions: 3 h; dosed: Primidone; 30 mg/kg; oral; Male; F344
Rat [38] = experiment: concentration in plasma after dosing; conditions: 0.25 h; dosed: Primidone; 30 mg/kg; oral; Female; F344
Rat [39] = experiment: concentration in plasma after dosing; conditions: 6 h; dosed: Primidone; 80 mg/kg; oral; Female; F344

Question: What does the source list for `c1ccncc1` [Pyridine]?
Answer: concentration in plasma (Rat [1]): 4760 ng/mL; concentration in plasma (Rat [2]): 1320 ng/mL; concentration in plasma (Rat [3]; 0.5 h): 3170 ng/mL; concentration in plasma (Rat [3]; 6 h): 1620 ng/mL; concentration in plasma (Rat [4]; 1 h): 2530 ng/mL; concentration in plasma (Rat [4]; 8 h): 1390 ng/mL; concentration in plasma (Rat [5]): 2710 ng/mL

Question: Which concentration in plasma (Rat [6]) does the source give for `O=C(c1ccccc1)c1ccc(O)cc1O` [2,4-Dihydroxybenzophenone] here?
Answer: 103 ng/mL

Question: And the concentration in plasma (Rat [7])?
Answer: 285 ng/mL

Question: And the concentration in plasma (Mouse [8]; 2.5 min)?
Answer: 64.5 ng/mL

Question: And the concentration in plasma (Mouse [8]; 10 min)?
Answer: 161 ng/mL

Question: And the concentration in plasma (Mouse [8]; 0.25 h)?
Answer: 352 ng/mL

Question: And the concentration in plasma (Mouse [8]; 2 h)?
Answer: 173 ng/mL

Question: What about the concentration in plasma (Mouse [8]; 3 h) of the same compound?
Answer: 105 ng/mL

Question: What about the concentration in plasma (Rat [9]; 0.5 h) of the same compound?
Answer: 675 ng/mL

Question: And the concentration in plasma (Rat [9]; 12 h)?
Answer: 221 ng/mL

Question: What about the concentration in plasma (Rat [10]; 0.5 h) of the same compound?
Answer: 256 ng/mL

Question: What about the concentration in plasma (Rat [10]; 10 h) of the same compound?
Answer: 66.8 ng/mL

Question: And the concentration in plasma (Rat [11]; 0.5 h)?
Answer: 142 ng/mL

Question: And the concentration in plasma (Rat [11]; 5 h)?
Answer: 65.6 ng/mL

Question: And the concentration in plasma (Mouse [12])?
Answer: 392 ng/mL

Question: Which concentration in plasma (Rat [13]) does the source give for `CC(C)[C@]12CC(=O)[C@H](C)[C@H]1C2` [alpha-Thujone] here?
Answer: 68.6 ng/mL

Question: What about the concentration in brain (Rat [14]) of the same compound?
Answer: 556 ng/g

Question: And the concentration in plasma (Rat [15])?
Answer: 169 ng/mL

Question: And the concentration in plasma (Rat [16])?
Answer: 248 ng/mL

Question: And the concentration in plasma (Rat [17])?
Answer: 180 ng/mL

Question: What about the concentration in plasma (Rat [18]) of the same compound?
Answer: 2.88 ng/mL

Question: What about the concentration in plasma (Rat [19]) of the same compound?
Answer: 872 ng/mL

Question: And the concentration in plasma (Rat [20])?
Answer: 1160 ng/mL

Question: What about the concentration in plasma (Rat [21]) of the same compound?
Answer: 201 ng/mL

Question: And the concentration in plasma (Rat [22])?
Answer: 18.3 ng/mL

Question: And the concentration in brain (Rat [23])?
Answer: 117 ng/g

Question: And the concentration in brain (Rat [24])?
Answer: 11.2 ng/g

Question: And the concentration in plasma (Rat [25])?
Answer: 18 ng/mL

Question: What does the source list for `O=S(=O)([O-])C(F)(F)C(F)(F)C(F)(F)C(F)(F)C(F)(F)C(F)(F)F.[K+]` [Perfluorohexane-1-sulphonic acid – potassium salt]?
Answer: concentration in liver (Rat [26]): 40300 ng/g; concentration in kidney (Rat [27]): 36500 ng/g; concentration in kidney (Rat [28]): 36900 ng/g; concentration in kidney (Rat [29]): 8530 ng/g; concentration in kidney (Rat [30]): 24300 ng/g; concentration in brain (Rat [31]): 701 ng/g; concentration in kidney (Rat [32]): 16700 ng/g

Question: Which concentration in plasma (Mouse [33]; 5 min) does the source give for `O=C(O)COc1ccc(Cl)cc1Cl` [2,4-Dichlorophenoxyacetic acid] here?
Answer: 3890 ng/mL

Question: And the concentration in plasma (Mouse [33]; 10 min)?
Answer: 4270 ng/mL

Question: What about the concentration in plasma (Mouse [33]; 0.25 h) of the same compound?
Answer: 3930 ng/mL

Question: What about the concentration in plasma (Mouse [33]; 0.5 h) of the same compound?
Answer: 3060 ng/mL

Question: What about the concentration in plasma (Mouse [33]; 2 h) of the same compound?
Answer: 1790 ng/mL

Question: And the concentration in plasma (Mouse [33]; 3 h)?
Answer: 990 ng/mL

Question: And the concentration in plasma (Mouse [33]; 6 h)?
Answer: 324 ng/mL

Question: What about the concentration in plasma (Mouse [33]; 8 h) of the same compound?
Answer: 161 ng/mL

Question: How did the concentration in plasma (Rat [34]) turn out when `C=CCc1ccc(OC)c(OC)c1` [Methyleugenol] was run?
Answer: 47500 ng/mL

Question: And the concentration in plasma (Rat [35]; 5 min)?
Answer: 670 ng/mL

Question: What about the concentration in plasma (Rat [35]; 6 h) of the same compound?
Answer: 11.6 ng/mL

Question: With `CCC1(c2ccccc2)C(=O)NCNC1=O` [Primidone] as the compound, how does the concentration in plasma (Rat [36]) read?
Answer: 1700 ng/mL

Question: And the concentration in plasma (Rat [37])?
Answer: 7700 ng/mL

Question: And the concentration in plasma (Rat [38])?
Answer: 17700 ng/mL

Question: And the concentration in plasma (Rat [39])?
Answer: 43900 ng/mL
